Measurements reported in patent US20200108115A1, “MEDICINAL COMPOSITION DERIVED FROM MULTIPLE PLANT SOURCES FOR GASTROINTESTINAL DISORDER” (priority 2017, published 2020).
In brackets after ≈: the same amount, converted by molar mass.

Assays:
Assay in all cases: MIC by resazurin micro-titre method
Format in all cases: cell-based
Klebsiella oxytoca (P4) = details: 37° C., 18-24 h
[1] = tested on: Salmonella typhimurium (P3); details: Salmonella enterica, 37° C., 18-24 h
[2] = tested on: Streptococcus thermophilus (BB2); details: beneficial, 37° C., 18-24 h
Vibrio cholera (P5) = details: Vibrio cholerae, read-out: MIC value
Helicobacter pylori (P6) = details: read-out: MIC value
[3] = tested on: Bacteroides fragilis (BB3); details: beneficial, 37° C., 18-24 h
[4] = tested on: Shigella dysenteriae (P7); details: read-out: MIC value
[5] = tested on: Faecalibacterium prausnitzii (BB5); details: beneficial, 37° C., 18-24 h

`O=C(O)c1cn(C2CC2)c2cc(N3CCNCC3)c(F)cc2c1=O` [Ciprofloxacin, ciprofloxacin] gave an MIC (Klebsiella oxytoca (P4)) of 500 µg/mL (≈ 1510 µM), an MIC [1] of 1000 µg/mL (≈ 3020 µM) and an MIC [2] of 31.2 µg/mL (≈ 94.3 µM). For the same molecule, the MIC (Vibrio cholera (P5)) was 125 µg/mL (≈ 377 µM), the MIC (Helicobacter pylori (P6)) was 15.1 µg/mL (≈ 45.6 µM) and the MIC [3] was 62.5 µg/mL (≈ 189 µM). The MIC [4] was 15.1 µg/mL (≈ 45.6 µM) and the MIC [5] was 31.2 µg/mL (≈ 94.3 µM).
